Assay results: US10683291B2, “Heterocyclic compounds for the treatment of disease” (OPPILAN PHARMA LTD., priority 2015, dated 2020)

Columns and labels:
lymphocyte count = assay: Lymphocyte count in mice; format: in vivo; details: 10 mg/kg p.o., blood at 4 hr, FIG. 2
Experimental: A total of 6 mice were used in this study for each compound (Examples 1-6) and divided in two groups as Group 1 (vehicle, Dose: 10 mL/kg) and Group 2 (Compound, Dose: 10 mg/kg, p.o.). Animals in Group 1 were administered with vehicle. Animals in Group 2 were administered with solution formulation of PTC1566-1 at 10 mg/kg dose through oral route. Blood samples from Group 2 were collected under light isoflurane anesthesia from a set of three mice at 1 & 4 hr (p.o.) and from Group 1 blood samples were collected at 4 hr. Plasma was harvested by centrifugation of blood and stored at −70° C. until analysis. Brain was collected at 4 hr from Group 2 animals, weighed and transferred in a poly-propylene tube. Two volumes of PBS buffer (pH 7.4) was added and homogenized to get final volume of 3 times and stored below −70° C. until bioanalysis. Blood sample at 4 hr from both groups were used for lymphocyte count. Analysis Plasma and Brain samples were quantified by fit-for-purpose LCMS/MS method (LLOQ: 4.91 ng/mL for plasma and 14.73 ng/g for brain). For each of the six compounds tested, plasma concentration was greater than 2600 ng/mL at 1 hr and greater than 2100 ng/mL at 4 hr. For each of the six compounds tested, brain concentration was less than 200 ng/g. For each of the six compounds tested (Compound 15, Compound 18, Compound 19, Compound 16, Compound 11, and Compound 13), the lymphocyte count was less than 45% of control (FIG. 2).

human S1P1 = human S1P1 (Homo sapiens (Human), UniProt P21453); assay: GTPγS binding assay (scintillation proximity assay); format: biochemical; details: S1P1 membrane from CHO-K1 Gαqi5 cells expressing full-length human S1P1; GTPγ35S SPA
human S1P1, sequence (P21453 whole entry): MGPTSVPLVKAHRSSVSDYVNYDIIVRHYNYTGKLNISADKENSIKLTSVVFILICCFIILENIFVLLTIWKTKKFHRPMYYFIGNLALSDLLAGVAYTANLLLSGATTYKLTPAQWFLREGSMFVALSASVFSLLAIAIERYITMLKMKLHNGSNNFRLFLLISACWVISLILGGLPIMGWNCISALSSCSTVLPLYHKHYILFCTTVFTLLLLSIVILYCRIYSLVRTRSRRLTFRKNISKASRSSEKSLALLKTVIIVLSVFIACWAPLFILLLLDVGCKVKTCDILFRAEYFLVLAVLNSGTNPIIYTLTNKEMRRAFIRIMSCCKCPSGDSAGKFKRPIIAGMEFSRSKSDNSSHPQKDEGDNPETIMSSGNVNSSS
Experimental: S1P1 membrane is prepared from CHO-K1 Gαqi5 cells expression full-length human S1P1. Scintillation proximity assay (SPA) is performed by incubating membranes, GTPγ^35S, and compounds at various concentrations for 60 minutes. Wheat germ agglutinin-coated SPA beads are added and incubated for 60 minutes before centrifugation and scintillation counting.

O=C1CC[C@H](COc2cc(Cl)c(-c3noc(-c4cn5cc(C(F)(F)F)cc(Cl)c5n4)n3)cc2Cl)N1 [Example 3, (R)-5-((2,5-dichloro-4-(5-(8-chloro-6-(trifluoromethyl)imidazo[1,2-a]pyridin-2-yl)-1,2,4-oxadiazol-3-yl)phenoxy)methyl)pyrrolidin-2-one]
lymphocyte count (lymphocyte count): less than 45 % of control

CN1C[C@H](Oc2cc(Cl)c(-c3noc(-c4cn5cc(C(F)(F)F)cc(Cl)c5n4)n3)cc2Cl)CCC1=O [Example 6, (R)-5-(2,5-dichloro-4-(5-(8-chloro-6-(trifluoromethyl)imidazo[1,2-a]pyridin-2-yl)-1,2,4-oxadiazol-3-yl)phenoxy)-1-methylpiperidin-2-one]
lymphocyte count (lymphocyte count): less than 45 % of control | EC50 (human S1P1): < 1 µM

O=C1CC[C@@H](COc2cc(Cl)c(-c3noc(-c4cn5cc(C(F)(F)F)cc(Cl)c5n4)n3)cc2Cl)N1 [Example 1, (S)-5-((2,5-dichloro-4-(5-(8-chloro-6-(trifluoromethyl)imidazo[1,2-a]pyridin-2-yl)-1,2,4-oxadiazol-3-yl)phenoxy)methyl)pyrrolidin-2-one]
lymphocyte count (lymphocyte count): less than 45 % of control | EC50 (human S1P1): < 1 µM

CN1C[C@@H](Oc2cc(Cl)c(-c3noc(-c4cn5cc(C(F)(F)F)cc(Cl)c5n4)n3)cc2Cl)CCC1=O [Example 4, (S)-5-(2,5-dichloro-4-(5-(8-chloro-6-(trifluoromethyl)imidazo[1,2-a]pyridin-2-yl)-1,2,4-oxadiazol-3-yl)phenoxy)-1-methylpiperidin-2-one]
lymphocyte count (lymphocyte count): less than 45 % of control

O=C1CC[C@@H](Oc2cc(Cl)c(-c3noc(-c4cn5cc(C(F)(F)F)cc(Cl)c5n4)n3)cc2Cl)CN1 [Example 5, (R)-5-(2,5-dichloro-4-(5-(8-chloro-6-(trifluoromethyl)imidazo[1,2-a]pyridin-2-yl)-1,2,4-oxadiazol-3-yl)phenoxy)piperidin-2-one]
lymphocyte count (lymphocyte count): less than 45 % of control | EC50 (human S1P1): < 1 µM
